According to patent publication US20240383856A1 (Zedira GmbH, priority 2021, published 2024):
Like-named read-outs stand apart in the source and are kept apart here.

Assays:
[1] = Caco-2 permeability assay (CacoReady kit); format: in vitro ADME; details: human
In short: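 Compounds are tested on pre-formed Caco-2 barriers supplied as a ready-to-use kit, following the kit protocol, and the Papp value is derived to estimate intestinal absorption.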

[2] = Single-dose oral pharmacokinetic profile in mice; format: in vivo; details: male C57BL/6 mice, single oral dose 200 mg/kg
Procedure: Presumed from promising Papp values (permeability coefficients, see below), the 5 inventors had proven the oral bioavailability of the inhibitors of the present application by the representative compounds II-3, II-15, and II-28. For this selected set of representative compounds, pharmacokinetic profiles were determined in male C57BL/6 mice (N=3, each). Briefly, the compounds were administered as single-dose soluble, oral formulation [20 mg/ml in PBS/(2—Hydroxypropyl)-β-cyclodextrin formulation] at 200 mg/kg. Plasma samples were taken at (0, 0.25, 0.5, 1, 2, 4, and 6 hours) and analyzed by LC-MS to determine the concentration of the representative compounds.

- Papp ([1]; Caco-2, Caco-2, read-out: Papp [cm/s] ×10^−6): 8.4 ×10⁻⁶ cm/s
- Papp ([1]; Caco-2, Caco-2 barrier, CacoReady kit, above 1×10^−6 cm/s classified as permeable): 1 to 10 ×10⁻⁶ cm/s
- Kel [2]: 1.0 h⁻¹
- CL/F ([2]; mouse, plasma): 277 mL/min/kg
- MRT ([2]; mouse, plasma): 1 h
- half-life ([2]; mouse, plasma): 42 min
- AUC(0-t) ([2]; mouse, plasma): 12000 ng·h/mL
- Cmax ([2]; mouse, plasma, read-out: Cmax): 21.6 µM
- Cmax ([2]; mouse, plasma, read-out: Cmax [ng/ml]): 13600 ng/mL
SMILES: CNC(=O)C(=O)CC[C@H](NC(=O)c1oc2ccccc2c1C)C(=O)Nc1cccn(CC(=O)NC2C3CC4CC(C3)CC2C4)c1=O (stereo partly drawn) [II-3, (S)-N1-(1-(2-(2-adamantylamino)-2-oxoethyl)-2-oxo-1,2-dihydropyridin-3-yl)-N6-methyl-2-(3-methylbenzofuran-2-carboxamido)-5-oxohexanediamide]
